This note sets out measurements from patent US5159081A, “Intermediates of peripherally selective N-carbonyl-3,4,4-trisubstituted piperidine opioid antagonists” (Eli Lilly and Company, priority 1991, dated 1992).

Where a name gives a salt, the structure may show the parent alone. Read-outs that look alike come from different tables or passages of the source.

One assay deals with T1, opioid receptor (Mus musculus, UniProt P42866).
T1 construct: Five CF-1 male mice (Charles River, Portage, MI); from tissue; host or cells: living CF-1 male mice (whole animal, endogenous receptor)
T1 sequence (P42866 whole entry): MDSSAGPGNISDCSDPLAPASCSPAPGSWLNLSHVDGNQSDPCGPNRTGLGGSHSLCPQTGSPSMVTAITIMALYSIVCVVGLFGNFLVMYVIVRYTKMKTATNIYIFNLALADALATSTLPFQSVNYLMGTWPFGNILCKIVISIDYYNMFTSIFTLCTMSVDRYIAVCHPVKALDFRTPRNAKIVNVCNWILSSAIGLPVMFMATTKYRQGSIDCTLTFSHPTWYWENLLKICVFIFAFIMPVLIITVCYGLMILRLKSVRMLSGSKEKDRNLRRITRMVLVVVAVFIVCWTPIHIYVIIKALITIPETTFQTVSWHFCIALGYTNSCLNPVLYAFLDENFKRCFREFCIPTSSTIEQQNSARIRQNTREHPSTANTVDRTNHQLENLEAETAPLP
Put plainly: in vivo. The following applies: sc. Set-up: species or system CF-1 male mice.

The target of another assay is T2, mu receptor (Rattus norvegicus, UniProt P33535).
T2 construct: The brain tissue, rat whole brain minus cerebellum for mu was homogenized; from tissue; host or cells: brain minus cerebellum of male Sprague Dawley rats, homogenate fraction
T2 sequence (P33535 whole entry): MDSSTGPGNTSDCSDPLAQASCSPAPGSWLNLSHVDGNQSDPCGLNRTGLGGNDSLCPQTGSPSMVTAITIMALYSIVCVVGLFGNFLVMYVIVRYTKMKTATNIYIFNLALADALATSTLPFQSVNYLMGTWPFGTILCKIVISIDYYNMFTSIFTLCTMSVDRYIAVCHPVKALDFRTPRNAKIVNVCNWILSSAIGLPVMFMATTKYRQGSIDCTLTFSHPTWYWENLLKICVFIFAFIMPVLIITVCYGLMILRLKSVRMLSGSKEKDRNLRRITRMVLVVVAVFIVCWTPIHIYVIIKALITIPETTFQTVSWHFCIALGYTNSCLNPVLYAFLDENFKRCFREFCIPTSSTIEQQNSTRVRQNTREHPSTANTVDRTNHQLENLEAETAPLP
Put plainly: Naloxone [3H] opioid receptor binding assay (mu receptor). Also noted: species or system rat (male Sprague Dawley). The following applies: 20 min; for Ki: rat whole brain minus cerebellum, pH 7.4, 37° C., read-out: Ki.

In assay [1] the test system is peripheral opioid receptors. Put plainly: mouse diarrhea test: precipitated diarrhea in morphine-maintained mice (peripheral opioid activity). It is filed as in vivo.
[2] abbreviates: pH 7.4, read-out: % displacement at 10 nM.
[3] abbreviates: pH 7.4, read-out: % displacement at 100 nM.
[4] abbreviates: mouse writhing test, dose of antagonist that reduced inhibition of writhing by 1.25 mg/kg morphine sulfate to 50%, s.c. 20 min before acetic acid, read-out: AD50 (the source's name).
The mark [5] stands for this setting: AD50 mouse writhing / ED50 mouse diarrhea, higher = greater relative peripheral antagonism.
Setting [6] is: mouse writhing test, […], s.c. 20 min before acetic acid, read-out: AD50 (the source's name).
Setting [7] is: pH 7.4, 100 nM test compound, [3H]naloxone 0.5 nM, […], read-out: % displacement at 100 nM.

On to `C[C@H]1CN(CCN(C(=O)CCCC(=O)O)c2ccccc2)CC[C@@]1(C)c1cccc(O)c1` (relative stereo) [Example 20, Trans-5-(phenyl-(2-(4-(3-hydroxyphenyl)-3,4-dimethyl-1-piperidinyl)ethyl)amino)-5-oxopentanoic acid monohydrate], for which, at opioid receptor (mouse, read-out: AD50), the ED50 was found to be 2.1 mg/kg. Moreover, the inhibition at 0.01 µM on mu receptor (setting [2]) came to 95%. In addition, the inhibition at 0.1 µM on mu receptor (setting [3]) was found to be 99%. The “Ratio (ratio of AD50 to ED50)” value in assay [1] (mouse, in vivo) is recorded as 35.

Turning to `C[C@H]1CN(CCN(C(=O)CCC(=O)O)C2CCCCC2)CC[C@@]1(C)c1cccc(O)c1` (relative stereo) [Example 22, 4-(Cyclohexyl-(2-(trans-4-(3-hydroxyphenyl)-3,4-dimethyl-1-piperidinyl)ethyl)amino)-4-oxobutanoic acid monohydrate], the ED50 on opioid receptor (setting [4]) turned out to be 1.25 mg/kg. Besides, the inhibition at 0.01 µM at mu receptor (setting [2]) worked out at 51%. Further, on mu receptor (setting [3]), the inhibition at 0.1 µM stood at 93%. The Ki at mu receptor ([…], [3H]naloxone 0.5 nM) came to 3.59 nM. Besides, in assay [1] (setting [5]), the “Ratio (ratio of AD50 to ED50)” value was 63.

Regarding `C[C@H]1CN(CCN(C(=O)CCCC(=O)O)C2CCCCC2)CC[C@@]1(C)c1cccc(O)c1` (relative stereo) [Example 23, 5-(Cyclohexyl-(2-(trans-4-(3-hydroxyphenyl)-3,4-dimethyl-1-piperidinyl)ethyl)amino)-5-oxopentanoic acid monohydrate], the ED50 on opioid receptor (setting [4]) was greater than 1.25 mg/kg. At mu receptor (setting [2]), the inhibition at 0.01 µM was 77%. In addition, the inhibition at 0.1 µM at mu receptor (setting [3]) is 100%. Further, the Ki on mu receptor ([…], [3H]naloxone 0.5 nM) was 4.38 nM. Moreover, the “Ratio (ratio of AD50 to ED50)” value in assay [1] (setting [5]) is greater than 5.

Consider `C[C@H]1CN(CCCN(C(=O)CCCC(=O)O)C2CCCCC2)CC[C@@]1(C)c1cccc(O)c1` (relative stereo) [Example 25, 5-(cyclohexyl-(3-(trans-4-(3-hydroxyphenyl)-3,4-dimethyl-1-piperidinyl)propyl)amino)-5-oxopentanoic acid], for which, at opioid receptor (setting [6]), the ED50 came to 0.61 mg/kg. Further, the inhibition at 0.01 µM at mu receptor (setting [2]) was 77%. Also, the inhibition at 0.1 µM on mu receptor (setting [3]) came out at 93%. Also, at mu receptor ([…], [3H]naloxone 0.5 nM), the Ki is 1.18 nM. Further, in assay [1] (setting [5]), the “Ratio (ratio of AD50 to ED50)” value came out at 10.

For `C[C@H]1CN(CCN(CC2CCCCC2)C(=O)CCC(=O)O)CC[C@@]1(C)c1cccc(O)c1` (relative stereo) [Example 26, 4-(cyclohexylmethyl-(2-(trans-4-(3-hydroxyphenyl)-3,4-dimethyl-1-piperidinyl)ethyl)amino)-4-oxobutanoic acid monohydrate], on opioid receptor (setting [6]), the ED50 turned out to be 3.6 mg/kg. Besides, the inhibition at 0.01 µM on mu receptor (setting [2]) is 73%. The inhibition at 0.1 µM on mu receptor (setting [3]) is 100%. The Ki on mu receptor ([…], [3H]naloxone 0.5 nM) was 1.91 nM. The “Ratio (ratio of AD50 to ED50)” value in assay [1] (setting [5]) is on record as 72.

In the case of `C[C@H]1CN(CCCN(CC2CCCCC2)C(=O)CCCC(=O)O)CC[C@@]1(C)c1cccc(O)c1` (relative stereo) [Example 27, Trans-5-(cyclohexylmethyl(3-(4-(3-hydroxyphenyl)-3,4-dimethyl-1-piperidinyl)propyl)amino)-5-oxopentanoic acid monohydrate], the ED50 on opioid receptor (setting [6]) amounted to 11 mg/kg. In addition, on mu receptor (setting [2]), the inhibition at 0.01 µM came out at 63%. For the same compound, the inhibition at 0.1 µM on mu receptor (setting [3]) was found to be 93%. Also, the Ki at mu receptor ([…], [3H]naloxone 0.5 nM) worked out at 8 nM. Also, in assay [1] (setting [5]), the “Ratio (ratio of AD50 to ED50)” value is recorded as 61.

Turning to `CC(C)OC(=O)CCC(=O)N(CCN1CC[C@@](C)(c2cccc(O)c2)[C@@H](C)C1)C1CCCCC1` (relative stereo) [Example 30, 4-(Cyclohexyl-(2-(trans-4-(3-hydroxyphenyl)-3,4-dimethyl-1-piperidinyl)ethyl)amino)-4-oxobutanoic acid 1-methyl-ethyl ester], the ED50 at opioid receptor (setting [6]) came out at 12.4 mg/kg. The inhibition at 0.01 µM at mu receptor (setting [2]) worked out at 79%. The inhibition at 0.1 µM at mu receptor (setting [3]) is 96%. Further, the Ki on mu receptor ([…], [3H]naloxone 0.5 nM) amounted to 11 nM. Besides, the “Ratio (ratio of AD50 to ED50)” value in assay [1] (setting [5]) is reported as greater than 40.

Regarding `CCCOC(=O)CCC(=O)N(CCN1CC[C@@](C)(c2cccc(O)c2)[C@@H](C)C1)C1CCCCC1` (relative stereo) [Example 31, 4-(Cyclohexyl-(2-(trans-4-(3-hydroxyphenyl)-3,4-dimethyl-1-piperidinyl)ethyl)amino)-4-oxobutanoic acid propyl ester], the ED50 at opioid receptor (setting [6]) is greater than 40 mg/kg. Besides, the inhibition at 0.01 µM on mu receptor (setting [2]) worked out at 82%. Further, the inhibition at 0.1 µM on mu receptor (setting [7]) came to 97%. Besides, at mu receptor ([…], [3H]naloxone 0.5 nM), the Ki is 2.52 nM. In addition, in assay [1] (setting [5]), the “Ratio (ratio of AD50 to ED50)” value was greater than 200.

Regarding `CCOC(=O)CCCC(=O)N(CCCN1CC[C@@](C)(c2cccc(O)c2)[C@@H](C)C1)C1CCCCC1` (relative stereo) [Example 33, 5-(Cyclohexyl-(3-(trans-4-(3-hydroxyphenyl)-3,4-dimethyl-1-piperidinyl)propyl)amino)-5-oxopentanoic acid ethyl ester monohydrochloride], the ED50 on opioid receptor (setting [6]) is 3.67 mg/kg. In addition, the inhibition at 0.1 µM on mu receptor (setting [3]) came out at 99%. Further, the inhibition at 0.01 µM at mu receptor (pH 7.4, 10 nM test compound, [3H]naloxone 0.5 nM, […], read-out: % displacement at 10 nM) came to 83%. Besides, the Ki on mu receptor ([…], [3H]naloxone 0.5 nM) amounted to 0.26 nM. In assay [1] (setting [5]), the “Ratio (ratio of AD50 to ED50)” value was 122.

As to `C[C@H]1CN(CCN(C(=O)CCC(N)=O)C2CCCCC2)CC[C@@]1(C)c1cccc(O)c1` (relative stereo) [Example 35, N-Cyclohexyl-N-(2-(trans-4-(3-hydroxyphenyl)-3,4-dimethyl-1-piperidinyl)ethyl)butanediamide monohydrochloride], at opioid receptor (setting [4]), the ED50 is greater than 1.25 mg/kg. In addition, the inhibition at 0.01 µM on mu receptor (setting [2]) worked out at 80%. For the same compound, the inhibition at 0.1 µM on mu receptor (setting [3]) is 99%. The Ki at mu receptor ([…], [3H]naloxone 0.5 nM) was determined as 2.15 nM. For the same compound, the “Ratio (ratio of AD50 to ED50)” value in assay [1] (setting [5]) is on record as greater than 3.

As for `C[C@H]1CN(CCCN(C(=O)CCCC(N)=O)C2CCCCC2)CC[C@@]1(C)c1cccc(O)c1` (relative stereo) [Example 37, N-(3-(trans-4-(3-hydroxyphenyl)-3,4-dimethyl-1-piperidinyl)propyl)-N-cyclohexylpentanediamide monohydrochloride monohydrate], the ED50 on opioid receptor (setting [6]) is 12.8 mg/kg. Further, the inhibition at 0.01 µM on mu receptor (setting [2]) was 88%. Besides, the inhibition at 0.1 µM at mu receptor (setting [3]) was found to be 100%. Also, at mu receptor ([…], [3H]naloxone 0.5 nM), the Ki is 0.61 nM. Moreover, the “Ratio (ratio of AD50 to ED50)” value in assay [1] (setting [5]) is 256.

Regarding `CNC(=O)CNC(=O)CC(=O)N(CCN1CC[C@@](C)(c2cccc(O)c2)[C@@H](C)C1)C1CCCCC1` (relative stereo) [Example 38, N-cyclohexyl-N-(2-(trans-4-(3-hydroxyphenyl)-3,4-dimethyl-1-piperidinyl)ethyl)-N'-(2-(methylamino)-2-oxoethyl)propanediamide monohydrochloride], the ED50 at opioid receptor (setting [6]) was 28.9 mg/kg. On mu receptor (setting [2]), the inhibition at 0.01 µM worked out at 79%. In addition, the inhibition at 0.1 µM at mu receptor (setting [7]) amounted to 98%. At mu receptor ([…], [3H]naloxone 0.5 nM), the Ki is 2.98 nM. Also, the “Ratio (ratio of AD50 to ED50)” value in assay [1] (setting [5]) came out at 1605.

Regarding `CC(C)CC(=O)NCCCC(=O)N(CCN1CC[C@@](C)(c2cccc(O)c2)[C@@H](C)C1)C1CCCCC1` (relative stereo) [Example 40, hydrochloride], the ED50 on opioid receptor (setting [6]) was determined as 2.2 mg/kg. For the same compound, the inhibition at 0.01 µM at mu receptor (setting [2]) came to 87%. Moreover, at mu receptor (setting [3]), the inhibition at 0.1 µM came to 100%. Besides, at mu receptor ([…], [3H]naloxone 0.5 nM), the Ki worked out at 1.16 nM. The “Ratio (ratio of AD50 to ED50)” value in assay [1] (mouse, in vivo) came out at 3.

On to `CCOC(=O)CCCC(=O)NC(CCN1CC[C@@](C)(c2cccc(O)c2)[C@@H](C)C1)CC(C)C` (single isomer, unassigned) [Example 3A, 5-((1-(2-(trans-4-(3-hydroxyphenyl)-3,4-dimethyl-1-piperidinyl)ethyl)-3-methylbutyl)amino)-5-oxopentanoic acid ethyl ester monohydrochloride], for which, on opioid receptor (setting [6]), the ED50 stood at 14.2 mg/kg. For the same compound, the inhibition at 0.01 µM at mu receptor (setting [2]) stood at 100%. Also, at mu receptor (setting [3]), the inhibition at 0.1 µM came to 100%. The Ki on mu receptor ([…], [3H]naloxone 0.5 nM) came to 0.3 nM. Besides, the “Ratio (ratio of AD50 to ED50)” value in assay [1] (setting [5]) worked out at 89.

In the case of `CCOC(=O)CCCC(=O)NC(CCN1CC[C@@](C)(c2cccc(O)c2)[C@@H](C)C1)CC(C)C` (stereo in doubt) [Example 3B, 5-((1-(2-(trans-4-(3-hydroxyphenyl)-3,4-dimethyl-1-piperidinyl)ethyl)-3-methylbutyl)amino)-5-oxopentanoic acid ethyl ester monohydrochloride], the ED50 on opioid receptor (setting [6]) is 15.5 mg/kg. The inhibition at 0.01 µM at mu receptor (setting [2]) was 93%. For the same compound, the inhibition at 0.1 µM at mu receptor (setting [3]) came out at 99%. For the same compound, the Ki on mu receptor ([…], [3H]naloxone 0.5 nM) worked out at 0.86 nM. Moreover, the “Ratio (ratio of AD50 to ED50)” value in assay [1] (setting [5]) was 111.

Turning to `CCOC(=O)CCCC(=O)N[C@@H](CC1CCCCC1)CN1CC[C@](C)(c2cccc(O)c2)[C@H](C)C1` [Example 51], the ED50 at opioid receptor (setting [6]) was greater than 40 mg/kg. In addition, the inhibition at 0.01 µM on mu receptor (setting [2]) was 73%. On mu receptor (setting [3]), the inhibition at 0.1 µM is 97%.

On to `C[C@H]1CN(C[C@H](CC2CCCCC2)NC(=O)CCCC(=O)OCC(=O)N(C)C)CC[C@@]1(C)c1cccc(O)c1` [Example 64], for which, at opioid receptor (setting [6]), the ED50 was determined as 13.5 mg/kg. The inhibition at 0.01 µM at mu receptor (setting [2]) was 81%. The inhibition at 0.1 µM on mu receptor (setting [3]) was 94%. In addition, the Ki at mu receptor ([…], [3H]naloxone 0.5 nM) turned out to be 1.51 nM.

On to `CC(=O)OC(C)OC(=O)CCCC(=O)N[C@@H](CC1CCCCC1)CN1CC[C@@](C)(c2cccc(O)c2)[C@@H](C)C1` (stereo partly drawn) [Example 67], for which the ED50 at opioid receptor (setting [6]) is greater than 40 mg/kg. The inhibition at 0.01 µM on mu receptor (pH 7.4, 10 nM test compound, [3H]naloxone 0.5 nM, mu receptor, read-out: % displacement at 10 nM) was determined as 73%. Also, the inhibition at 0.1 µM on mu receptor (pH 7.4, 100 nM test compound, [3H]naloxone 0.5 nM, mu receptor, read-out: % displacement at 100 nM) worked out at 95%.

The term Ki denotes a dissociation constant, usually derived from enzyme kinetics or from competition with a known ligand.
